# Measured values taken from patent US20230081426A1, “COMPOUNDS AND METHODS FOR KRAS MODULATION AND INDICATIONS THEREFOR” (Plexxikon Inc., priority 2020, published 2023).
# Experiments:
# [1] = biological target: T1, G12D-mutant human KRAS (amino acid residues 1-188) (Homo sapiens, UniProt P01116, G12D); experiment: KRAS Binding Disruption Assay (AlphaScreen; biotinylated KRpep-2d analogue or RAF1-RBD), G12D; conditions: KRAS G12D; geometric mean; read-out: KRAS GMean IC50 (uM) MUTATION: G12D
# T1 construct: G12D or G12C-mutant human KRAS (amino acid residues 1-188) with FLAG tag; made in house; host or cells: E. coli
# Summary of the method: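 Compounds are titrated against 5-20 nM mutant KRAS and 5-20 nM of either a biotinylated KRpep-2d analogue or RAF1-RBD, incubated 1 h at 25° C. Disruption is detected as reduced Alpha signal after 1 h with donor and acceptor beads at 10 μg/mL.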
# [2] = biological target: T2, G12V-mutant human KRAS (amino acid residues 1-188) (Homo sapiens, UniProt P01116, G12V); experiment: KRAS Binding Competition Assay (AlphaScreen; biotinylated KRpep-2d analogue), G12V; conditions: geometric mean, read-out: KRAS GMean IC50 (uM) MUTATION: G12V
# T2 construct: G12V-mutant human KRAS (amino acid residues 1-188) with FLAG tag was purified from E. coli; made in house; host or cells: E. coli
Compound,IC50 [1] [µM],IC50 [2] [µM]
"CN1CCC[C@H]1COc1nc(N2[C@@H]3CC[C@H]2CN(C(=O)CC(=O)O)C3)c2ccc(-c3cc(O)cc4ccccc34)cc2n1 [P-0324, 3-((1R,5S)-8-(7-(3-hydroxynaphthalen-1-yl)-2-(((S)-1-methylpyrrolidin-2-yl)methoxy)quinazolin-4-yl)-3,8-diazabicyclo[3.2.1]octan-3-yl)-3-oxopropanoic acid]",100 to 1000,10 to 100
"CN1CCC[C@H]1COc1nc(N2[C@@H]3CC[C@H]2CN(C(=O)NCc2ccccn2)C3)c2ccc(-c3cc(O)cc4ccccc34)cc2n1 [P-0216, (1R,5S)-8-(7-(3-hydroxynaphthalen-1-yl)-2-(((S)-1-methylpyrrolidin-2-yl)methoxy)quinazolin-4-yl)-N-(pyridin-2-ylmethyl)-3,8-diazabicyclo[3.2.1]octane-3-carboxamide]",10 to 100,10 to 100
"CN1CCC[C@H]1COc1nc(N2C[C@H]3CC[C@@H](C2)N3)c2ccc(-c3c(F)ccc4[nH]ccc34)cc2n1 [P-0184, 4-((1R,5S)-3,8-diazabicyclo[3.2.1]octan-3-yl)-7-(5-fluoro-1H-indol-4-yl)-2-(((S)-1-methylpyrrolidin-2-yl)methoxy)quinazoline]",10 to 100,100 to 1000
"O=C(NC1CCCC1)N1[C@@H]2CC[C@H]1CN(c1nc(OCC34CCCN3CCC4)nc3cc(-c4cc(O)cc5ccccc45)ccc13)C2 [P-0075, (1R,5S)-N-cyclopentyl-3-(7-(3-hydroxynaphthalen-1-yl)-2-((tetrahydro-1H-pyrrolizin-7a(5H)-yl)methoxy)quinazolin-4-yl)-3,8-diazabicyclo[3.2.1]octane-8-carboxamide]",0.0001 to 10,0.0001 to 10
"COCCS(=O)(=O)N1[C@@H]2CC[C@H]1CN(c1nc(OCC34CCCN3CCC4)nc3cc(-c4cc(O)cc5ccccc45)ccc13)C2 [P-0139, 4-(4-((1R,5S)-8-((2-methoxyethyl)sulfonyl)-3,8-diazabicyclo[3.2.1]octan-3-yl)-2-((tetrahydro-1H-pyrrolizin-7a(5H)-yl)methoxy)quinazolin-7-yl)naphthalen-2-ol]",10 to 100,10 to 100
"CN1CCC[C@H]1COc1nc(N2C[C@H]3CC[C@@H](C2)N3)c2ccc(-c3ccc4oc(N)nc4c3)cc2n1 [P-0181, 5-(4-((1R,5S)-3,8-diazabicyclo[3.2.1]octan-3-yl)-2-(((S)-1-methylpyrrolidin-2-yl)methoxy)quinazolin-7-yl)benzo[d]oxazol-2-amine]",10 to 100,10 to 100
"CN1CCC[C@H]1COc1nc(N2[C@@H]3CC[C@H]2CN(C(=O)CC2SC(=O)NC2=O)C3)c2ccc(-c3cc(O)cc4ccccc34)cc2n1 (stereo partly drawn) [P-0292, 5-(2-((1R,5S)-8-(7-(3-hydroxynaphthalen-1-yl)-2-(((S)-1-methylpyrrolidin-2-yl)methoxy)quinazolin-4-yl)-3,8-diazabicyclo[3.2.1]octan-3-yl)-2-oxoethyl)thiazolidine-2,4-dione]",10 to 100,10 to 100
"Cc1n[nH]c2cc(-c3ccc4c(N5C[C@H]6CC[C@@H](C5)N6)nc(OC[C@@H]5CCCN5C)nc4c3)ccc12 [P-0183, 4-((1R,5S)-3,8-diazabicyclo[3.2.1]octan-3-yl)-7-(3-methyl-1H-indazol-6-yl)-2-(((S)-1-methylpyrrolidin-2-yl)methoxy)quinazoline]",100 to 1000,10 to 100
"CN1CCN(C(=O)CN2C[C@H]3CC[C@@H](C2)N3c2nc(OC[C@@H]3CCCN3C)nc3cc(-c4cc(O)cc5ccccc45)ccc23)CC1 [P-0277, 2-((1R,5S)-8-(7-(3-hydroxynaphthalen-1-yl)-2-(((S)-1-methylpyrrolidin-2-yl)methoxy)quinazolin-4-yl)-3,8-diazabicyclo[3.2.1]octan-3-yl)-1-(4-methylpiperazin-1-yl)ethan-1-one]",0.0001 to 10,10 to 100
"CN1CCC[C@H]1COc1nc(N2[C@@H]3CC[C@H]2CN(C(=O)Nc2cnc[nH]2)C3)c2ccc(-c3cc(O)cc4ccccc34)cc2n1 [P-0347, (1R,5S)-8-(7-(3-hydroxynaphthalen-1-yl)-2-(((S)-1-methylpyrrolidin-2-yl)methoxy)quinazolin-4-yl)-N-(1H-imidazol-5-yl)-3,8-diazabicyclo[3.2.1]octane-3-carboxamide]",0.0001 to 10,0.0001 to 10
"CN1CCC[C@H]1COc1nc(N2[C@@H]3CC[C@H]2CNC3)c2ccc(-c3c(O)cccc3Cl)cc2n1 [P-0290, 2-(4-((1R,5S)-3,8-diazabicyclo[3.2.1]octan-8-yl)-2-(((S)-1-methylpyrrolidin-2-yl)methoxy)quinazolin-7-yl)-3-chlorophenol]",10 to 100,10 to 100

# The next lines start with the values.
IC50 [1] [µM],IC50 [2] [µM],Compound
0.0001 to 10,10 to 100,"CN(C)CCCS(=O)(=O)N1[C@@H]2CC[C@H]1CN(c1nc(OC[C@@H]3CCCN3C)nc3c(F)c(-c4cc(O)cc5ccccc45)ccc13)C2 [P-0380, 4-(4-((1R,5S)-8-((3-(dimethylamino)propyl)sulfonyl)-3,8-diazabicyclo[3.2.1]octan-3-yl)-8-fluoro-2-(((S)-1-methylpyrrolidin-2-yl)methoxy)quinazolin-7-yl)naphthalen-2-ol]"
0.0001 to 10,0.0001 to 10,"CN(C)CCNS(=O)(=O)N1[C@@H]2CC[C@H]1CN(c1nc(OCC34CCCN3CCC4)nc3c(F)c(-c4cc(O)cc5ccccc45)ccc13)C2 [P-0280, (1R,5S)-N-(2-(dimethylamino)ethyl)-3-(8-fluoro-7-(3-hydroxynaphthalen-1-yl)-2-((tetrahydro-1H-pyrrolizin-7a(5H)-yl)methoxy)quinazolin-4-yl)-3,8-diazabicyclo[3.2.1]octane-8-sulfonamide]"
0.0001 to 10,0.0001 to 10,"Oc1cc(-c2ccc3c(N4C[C@H]5CC[C@@H](C4)N5)nc(N4CC(N5CC(O)C5)C4)nc3c2F)c2ccccc2c1 [P-0632, 1′-(4-((1R,5S)-3,8-diazabicyclo[3.2.1]octan-3-yl)-8-fluoro-7-(3-hydroxynaphthalen-1-yl)quinazolin-2-yl)-[1,3′-biazetidin]-3-ol]"
10 to 100,10 to 100,"CN1CCc2c(cccc2Oc2nc(N3C[C@H]4CC[C@@H](C3)N4)c3ccc(-c4c(O)cccc4F)c(F)c3n2)C1 [P-0334, 2-(4-((1R,5S)-3,8-diazabicyclo[3.2.1]octan-3-yl)-8-fluoro-2-((2-methyl-1,2,3,4-tetrahydroisoquinolin-5-yl)oxy)quinazolin-7-yl)-3-fluorophenol]"
0.0001 to 10,100 to 1000,"CN1CCC[C@H]1COc1nc(N2C[C@H]3CC[C@@H](C2)N3CC(=O)N2CCNCC2)c2ccc(-c3cc(O)cc4ccccc34)c(F)c2n1 [P-0471, 2-((1R,5S)-3-(8-fluoro-7-(3-hydroxynaphthalen-1-yl)-2-(((S)-1-methylpyrrolidin-2-yl)methoxy)quinazolin-4-yl)-3,8-diazabicyclo[3.2.1]octan-8-yl)-1-(piperazin-1-yl)ethan-1-one]"
100 to 1000,100 to 1000,"CN1CCC[C@H]1COc1nc(N2C[C@H]3CC[C@@H](C2)N3)c2ccc(-c3ccccc3)cc2n1 [P-0151, 4-((1R,5S)-3,8-diazabicyclo[3.2.1]octan-3-yl)-2-(((S)-1-methylpyrrolidin-2-yl)methoxy)-7-phenylquinazoline]"
0.0001 to 10,10 to 100,"OCC1CN(c2nc(N3C[C@H]4CC[C@@H](C3)N4)c3ccc(-c4cc(O)cc5ccccc45)c(F)c3n2)CC1O (stereo partly drawn) [P-0629, 1-(4-((1R,5S)-3,8-diazabicyclo[3.2.1]octan-3-yl)-8-fluoro-7-(3-hydroxynaphthalen-1-yl)quinazolin-2-yl)-4-(hydroxymethyl)pyrrolidin-3-ol]"
0.0001 to 10,10 to 100,"CN1C2CCC1(COc1nc(N3C[C@H]4CC[C@@H](C3)N4)c3ccc(-c4cc(O)cc5ccccc45)cc3n1)CC2 [P-0185, 4-(4-((1R,5S)-3,8-diazabicyclo[3.2.1]octan-3-yl)-2-((7-methyl-7-azabicyclo[2.2.1]heptan-1-yl)methoxy)quinazolin-7-yl)naphthalen-2-ol]"
0.0001 to 10,10 to 100,"Cc1cc(C(=O)N2[C@@H]3CC[C@H]2CN(c2nc(OCC45CCCN4CCC5)nc4cc(-c5cc(O)cc6ccccc56)ccc24)C3)[nH]c(=O)n1 [P-0109, 6-((1R,5S)-3-(7-(3-hydroxynaphthalen-1-yl)-2-((tetrahydro-1H-pyrrolizin-7a(5H)-yl)methoxy)quinazolin-4-yl)-3,8-diazabicyclo[3.2.1]octane-8-carbonyl)-4-methylpyrimidin-2(1H)-one]"
10 to 100,10 to 100,"CN1CCc2cccc(Oc3nc(N4C[C@H]5CC[C@@H](C4)N5)c4ccc(-c5c(O)cccc5F)c(F)c4n3)c2C1 [P-0332, 2-(4-((1R,5S)-3,8-diazabicyclo[3.2.1]octan-3-yl)-8-fluoro-2-((2-methyl-1,2,3,4-tetrahydroisoquinolin-8-yl)oxy)quinazolin-7-yl)-3-fluorophenol]"
0.0001 to 10,10 to 100,"CN1CCC[C@@H](COc2nc(N3C[C@H]4CC[C@@H](C3)N4)c3ccc(-c4cc(O)cc5ccccc45)cc3n2)C1 [P-0078, 4-(4-((1R,5S)-3,8-diazabicyclo[3.2.1]octan-3-yl)-2-(((R)-1-methylpiperidin-3-yl)methoxy)quinazolin-7-yl)naphthalen-2-ol]"
0.0001 to 10,10 to 100,"CN(C)C1(C)CN(c2nc(N3C[C@H]4CC[C@@H](C3)N4)c3ccc(-c4cc(O)cc5ccccc45)c(F)c3n2)C1 [P-0635, 4-(4-((1R,5S)-3,8-diazabicyclo[3.2.1]octan-3-yl)-2-(3-(dimethylamino)-3-methylazetidin-1-yl)-8-fluoroquinazolin-7-yl)naphthalen-2-ol]"
